Measurements published in the NIST ThermoML archive (doi:10.1021/je060441j).
Numbers after ± are expanded uncertainties.

Tests used:
[1] = Liquid
[2] = xn = mol fraction of the nth substance listed; conditions: 101 kPa, Liquid, x1 = 1

mass density ([1]; 288.15 K, 101 kPa)	mass density ([1]; 293.15 K, 101 kPa)	mass density ([1]; 298.15 K, 101 kPa)	mass density ([1]; 303.15 K, 101 kPa)	mass density ([1]; 308.15 K, 101 kPa)	mass density ([1]; 313.15 K, 101 kPa)	mass density ([1]; 298.15 K, 101.33 kPa)	mass density ([2]; 288.15 K)	mass density ([2]; 293.15 K)	mass density ([2]; 298.15 K)	mass density ([2]; 303.15 K)	mass density ([2]; 308.15 K)	mass density ([2]; 313.15 K)	Structure (SMILES)
796.093 ± 0.23 kg/m3	791.4 ± 0.23 kg/m3	786.694 ± 0.23 kg/m3	781.966 ± 0.24 kg/m3	777.213 ± 0.24 kg/m3	772.443 ± 0.24 kg/m3	–	–	–	–	–	–	–	CO [methanol]
–	–	–	–	–	–	873.582 ± 0.16 kg/m3	–	–	–	–	–	–	c1ccccc1 [benzene]
–	–	–	–	–	–	–	796.093 ± 0.23 kg/m3	791.4 ± 0.23 kg/m3	786.694 ± 0.23 kg/m3	781.966 ± 0.24 kg/m3	777.213 ± 0.24 kg/m3	772.443 ± 0.24 kg/m3	CO [methanol] + ClC(Cl)Cl
1498.08 ± 0.47 kg/m3	1488.64 ± 0.46 kg/m3	1479.15 ± 0.45 kg/m3	1469.61 ± 0.45 kg/m3	1460.03 ± 0.44 kg/m3	1450.41 ± 0.43 kg/m3	–	–	–	–	–	–	–	ClC(Cl)Cl [trichloromethane]
